Results on ten molecules are retold here after paper PMC10278368 (The Pediatric infectious disease journal, 2011).

Series [1] is classed as in vivo, human.
The test system of series [2] is multidrug resistant Klebsiella pneumoniae. In words: microbe, parasite or virus in culture.
Series [3] shares this test system. As to conditions: blood culture isolate of the patient; for MIC: method not stated.
The test system is the same in series [4]. The series is classed as in vivo, human. As to conditions: 1.5 mg/kg/dose every 12 hours IV in combination with amikacin once daily; persistently febrile; infant, n = 1.
The test system of a further series is Acinetobacter baumannii. Kind of series: MIC of the endotracheal aspirate isolate. The following applies: isolate from endotracheal aspirate of the patient; reported as susceptible. The series is classed as cell-based.

≈ marks a conversion by molar mass, not a printed value. Where a name gives a salt, the structure may show the parent alone. Read-outs that look alike come from different tables or passages of the source. Bridge positions count the residues as written; N and C are the ends. Square brackets hold non-standard residues; d marks the D form. Peptide text beside a SMILES is read from it. * marks the point of attachment. X1 = CC[C@H](C)CCCCC(=O)*; Dab = NCC[C@H](N)C(=O)O

In turn, `CC[C@H](C)CCCCC(=O)N[C@@H](CCN)C(=O)N[C@H](C(=O)N[C@@H](CCN)C(=O)N[C@H]1CCNC(=O)[C@H]([C@@H](C)O)NC(=O)[C@H](CCN)NC(=O)[C@H](CCN)NC(=O)[C@H]([C@@H](C)CC)NC(=O)[C@@H](Cc2ccccc2)NC(=O)[C@H](CCN)NC1=O)[C@@H](C)O` [Isoleucine Polymyxin B1] (X1-[Dab]T[Dab][Dab][Dab][dF]I[Dab][Dab]T; lactam 4-C) showed a clearance in series [1] (human, in vivo, iv) of 4.02 mL/min.
Turning to `CC[C@H](C)CCCCC(=O)N[C@@H](CCN)C(=O)N[C@H](C(=O)N[C@@H](CCN)C(=O)N[C@H]1CCNC(=O)[C@H]([C@@H](C)O)NC(=O)[C@H](CCN)NC(=O)[C@H](CCN)NC(=O)[C@H](CC(C)C)NC(=O)[C@@H](Cc2ccccc2)NC(=O)[C@H](CCN)NC1=O)[C@@H](C)O` [Polymyxin B1] (X1-[Dab]T[Dab][Dab][Dab][dF]L[Dab][Dab]T; lactam 4-C), in series [1] (human, in vivo, iv), the clearance was 5.07 mL/min and the half-life is 3.07 h. Moreover, in series [1] (infant, n = 1, IV polymyxin B, steady-state serum, LC-MS), the “elimination half-life (rounded)” value was 3.1 h.
For the molecule `NCC[C@H](O)C(=O)N[C@@H]1C[C@H](N)[C@@H](O[C@H]2O[C@H](CN)[C@@H](O)[C@H](O)[C@H]2O)[C@H](O)[C@H]1O[C@H]1O[C@H](CO)[C@@H](O)[C@H](N)[C@H]1O` [amikacin], the MIC in series [2] was < 2 µg/mL.
Still for that read-out and setting: for `C[C@H]1[C@H](NC(=O)/C(=N\OC(C)(C)C(=O)O)c2csc(N)n2)C(=O)N1S(=O)(=O)O` [aztreonam] the value was > 64 µg/mL.
`CC(C)(O/N=C(\C(=O)N[C@@H]1C(=O)N2C(C(=O)[O-])=C(C[n+]3ccccc3)CS[C@H]12)c1csc(N)n1)C(=O)O` [ceftazidime]: the MIC in series [2] amounted to 16 µg/mL (≈ 29.3 µM).
Still for that read-out and setting: for `CO/N=C(\C(=O)N[C@@H]1C(=O)N2C(C(=O)O)=C(CSc3nc(=O)c(=O)[nH]n3C)CS[C@H]12)c1csc(N)n1` [ceftriaxone] the value was 16 µg/mL (≈ 28.9 µM).
Take `C[C@@H](O)[C@H]1C(=O)N2C(C(=O)O)=C(S[C@@H]3CN[C@H](C(=O)N(C)C)C3)[C@H](C)[C@H]12` [meropenem]: in series [2] (read-out: MIC by E-test), the MIC amounted to 32 µg/mL (≈ 83.4 µM).
In the case of `CC[C@H](C)CCCCC(=O)N[C@@H](CCN)C(=O)N[C@H](C(=O)N[C@@H](CCN)C(=O)N[C@H]1CCNC(=O)[C@H]([C@@H](C)O)NC(=O)[C@H](CCN)NC(=O)[C@H](CCN)NC(=O)[C@H](CC(C)C)NC(=O)[C@@H](Cc2ccccc2)NC(=O)[C@H](CCN)NC1=O)[C@@H](C)O` [polymyxin B, Polymyxin B sulfate] (X1-[Dab]T[Dab][Dab][Dab][dF]L[Dab][Dab]T; lactam 4-C (inferred); N-terminus assumed), the “MIC by E-test” value in series [3] (E-test) came to 1.5 µg/mL. In addition, the “days of persistently positive blood cultures under treatment” value in series [4] is on record as 3 days.
As to ampicillin/sulbactam, the MIC in series [3] was > 32 µg/mL.
Consider piperacillin/tazobactam, for which the MIC is > 128 µg/mL in series [3] and < 4 µg/mL in the series with Acinetobacter baumannii.
